We go through two compounds from patent publication US10766889B2, “Aryl-2,2′-tandem bisthiazole compound and preparation method and use thereof” (SHANGHAI INSTITUTE OF MATERIA MEDICA, CHINESE ACADEMY OF …, priority 2016, dated 2020).

What all share (format): cell-based
In assay [1] the test system is Human blood lymphoma Raji. The experiment in a line: Tumor cell proliferation inhibition, CCK-8. The settings on record: 72 h, read-out: IC50 (mean ± SD) Human blood lymphoma Raji.
Experimental: (§1) After the drug was applied, 10 μL of CCK-8 solution was added to each well in Ramos, HL-60, Molt-4, Raji, CCRF-CEM, and SU-DHL-6 tumor cell line experiments, and incubated at 37° C. for 2 h. The OD value at 450 nm was measured by a microplate reader. […] After dried by convert placing in an oven, the plate was taken out and 100 μL of SRB solution (4 mg/mL SRB powder dissolved in 1% glacial acetic acid) was added into each well. After standed at room temperature for 15 minutes, it was washed five times with 1% glacial acetic acid to completely remove the SRB which has not bounded to the plate protein. After dried by convert placing in an oven, 150 μL of 10 mM Tris solution was added into each well, and the OD value at 560 nm was measured by a microplate reader.
(§2) The inhibition rate of tumor cell proliferation was calculated according to the following formula. The half-inhibition amount IC50 value was calculated by Log it method. Inhibition rate=(control group OD value−administration group OD value)/control group OD value×100%. Each set of experiments was repeated three times independently, while 3 replicate wells per concentration.
Assay [2] has as its system Embryonic lung cells MRC-5. The experiment in a line: Cell proliferation inhibition, SRB. The settings on record: Homo sapiens, MRC5, 72 h, read-out: IC50 (mean ± SD) Embryonic lung cells MRC-5.
Experimental: as §1, §2
The next assay has as its system promyeloid leukemia HL60. The experiment in a line: Tumor cell proliferation inhibition, CCK-8. The settings on record: Homo sapiens, HL-60, 72 h, read-out: IC50 (mean ± SD) promyeloid leukemia HL60.
Assay [3] deals with Acute lymphocytic leukemia T lymphocyte CCRF. The experiment in a line: Tumor cell proliferation inhibition, CCK-8. The following applies: Homo sapiens, 72 h, read-out: IC50 (mean ± SD) Acute lymphocytic leukemia T lymphocyte CCRF.
Experimental: as §1, §2
In a further assay the test system is stomach cancer MKN-74. In words: Tumor cell proliferation inhibition, SRB. The settings on record: Homo sapiens, 72 h, read-out: IC50 (mean ± SD) stomach cancer MKN-74.
Assay [4] has as its system Acute lymphoblastic leukemia MOLT-4. In words: Tumor cell proliferation inhibition, CCK-8. The settings on record: Homo sapiens, 72 h, read-out: IC50 (mean ± SD) Acute lymphoblastic leukemia MOLT-4.
Experimental: as §1, §2
For another assay, the system named is lymphoma Ramos. The experiment in a line: Tumor cell proliferation inhibition, CCK-8. The following applies: Homo sapiens, 72 h, read-out: IC50 (mean ± SD) lymphoma Ramos.
The next assay has as its system Liver cancer BEL-7404. In words: Tumor cell proliferation inhibition, SRB. The settings on record: Homo sapiens, 72 h, read-out: IC50 (mean ± SD) Liver cancer BEL-7404.
Another assay has as its system Lung Cancer A549. The experiment in a line: Tumor cell proliferation inhibition, SRB. The following applies: Homo sapiens, 72 h, read-out: IC50 (mean ± SD) Lung Cancer A549. How it is done: The antitumor activity test of the example compounds was carried out, and the in vitro antitumor activities of the compounds were evaluated by measuring the growth inhibitory activities of the compounds against a plurality of human tumor cell lines.
Tumor cells (except MDA-MB-231) were routinely cultured under 37° C., 5% CO2.
According to the cell growth rate, the tumor cells in the logarithmic growth phase were inoculated into 96-well culture plates at 90 μL/well, and adherently grown for 24 h and then added with 10 μL/well, and each concentration was set to three replicate wells, and DMSO vehicle controls and cell-free wells at corresponding concentration were also set. Tumor cells (except MDA-MB-231) were cultured for 72 h under conditions of 37° C. and 5% CO2 (MDA-MB-231 cells were cultured at 37° C. without CO2). […] The OD value at 450 nm was measured by a microplate reader. […] After dried by convert placing in an oven, 150 μL of 10 mM Tris solution was added into each well, and the OD value at 560 nm was measured by a microplate reader.
The inhibition rate of tumor cell proliferation was calculated according to the following formula. The half-inhibition amount IC50 value was calculated by Log it method. […]

A further assay deals with Lung Cancer EBC-1. The experiment in a line: Tumor cell proliferation inhibition, SRB. The following applies: Homo sapiens, EBC-1, 72 h, read-out: IC50 (mean ± SD) Lung Cancer EBC-1.

Experimental for Liver cancer BEL-7404: as §1, §2
Experimental for lymphoma Ramos: as §1, §2
Experimental for promyeloid leukemia HL60: as §1, §2
Experimental for stomach cancer MKN-74: as §1, §2

For `Cc1[nH]c2ccccc2c1CCNCc1ccc(/C=C/C(=O)NO)cc1` [LBH589, panobinostat], the IC50 (as a rule, the concentration needed to halve the response being measured) was 12.3 ± 1.61 nM in assay [1]; 76.9 ± 7.22 nM in [2]; 12.3 ± 0.24 nM in the assay with promyeloid leukemia HL60; 13.7 ± 0.93 nM in assay [3]; 29.2 ± 0.97 nM with stomach cancer MKN-74; 15 ± 8.18 nM in [4]. Further, the results for the IC50 in the assay on lymphoma Ramos, with Liver cancer BEL-7404 and in the assay with Lung Cancer A549 were 7.14 ± 0.42 nM, 18.6 ± 1.51 nM and 48.9 ± 7.01 nM, respectively.

For the compound `O=C(CCCCCCC(=O)Nc1ccccc1)NO` [SAHA, vorinostat], the half-inhibitory concentration (IC50) in the assay on Lung Cancer EBC-1 was 1550 ± 474 nM; in the assay with Lung Cancer A549, 2910 ± 678 nM.
